Results from patent US20210000879A1, “METHODS AND COMPOSITIONS FOR MRNA-BASED MODULATION AND DETECTION OF CELL PHENOTYPES” (Georgia Tech Research Corporation, priority 2018, published 2021).

Legend:
[1] = test system: complete atrioventricular block (CAVB) model in rats; assay: 3-lead surface ECG in rat complete atrioventricular block model; type: in vivo
Description: (§1) The inventors next studied the effects of administering TBX18 mRNA to a rat model of a complete atrioventricular block. […] In this study, the inventors created a complete atrioventricular block (CAVB) model in rats and monitored the rats for one week to confirm stable and persistent CAVB. Next, TBX18 mRNA was injected into the ventricular apex of each rat and a telemetry device was implanted. Some rats received a high dose of TBX18 mRNA, which was 300 μg TBX mRNA with 205 μl RNA free PBS. The inventors continuously monitored and recorded data from the telemetry device including electrocardiograms for 21 days. The inventors performed 3-lead surface ECGs on anesthetized animals on days 7, 14 and 21 with an isoproterenol challenge, and harvested the heart on day 21.
The inventors determined if there was antegrade conduction (meaning that the direction of cardiac conduction occurred from the SA node, AV node and down toward the apex of the heart) or retrograde conduction (meaning that the direction of cardiac conduction occurred from the site of TBX18 delivery which was the apex of the left ventricle). In order to determine this, the inventors determined a baseline ECG under anesthesia before TBX18 mRNA injection by recording three-lead surface ECGs for ten minutes while the rat was asleep under anesthesia. Recordings confirmed the presence of AV conduction block with multiple P waves between each QRS complex, inconsistent P-R intervals, and a relatively low heart rate of 100 bpm, compared to a healthy rate of over 300 bpm for rats.

[2] = test system: complete atrioventricular block (CAVB) model in rats; assay: Telemetry ECG in conscious rats with complete atrioventricular block; type: in vivo, rat; details: for heart rate during isoproterenol treatment: conscious
Description: as §1
ECG data was then compared with telemetry data. Before injection of TBX18 mRNA, telemetry biopotential electrodes were sutured to the chest wall and housed in the abdominal cavity of the rat. Telemetry 2-lead ECG signal was recorded wirelessly for conscious, awake rats. The day before injection of TBX18 mRNA, AV block was present in ECG recordings with an average heart rate of 120 bpm, and these values were used as the baseline.

[3] = test system: porcine model of complete heart block; assay: Porcine model of complete heart block; type: in vivo, pig
Source text: The inventors next sought to test the TBX18 mRNA in a large animal model, specifically a porcine model, of complete heart block. The inventors used a control of GFP mRNA+A83-01. On Day 1, the inventors created an intracardiac map by implanting a pacemaker and administered the TBX18 mRNA or control. Weeks 2, 4, and 6 after administration included an interrogation of the pacemaker and an isoproterenol challenge to measure the animals' maximum heart rate (max HR). In Week 6, arrythmia testing and intracardiac mapping were performed and vital organs were harvested. […] The proper diurnal response in TBX18-injected pig is in line with the average heart rate data from FIG. 18.

[4] = test system: neonatal rat ventricular cardiomyocytes; assay: TBX18 protein expression by immunoblot normalized to GAPDH; type: cell-based; details: 333 ng mRNA with ViroMer Red, 96-well plate
Description: Freshly-isolated neonatal rat ventricular cardiomyocytes were transfected with IVT mRNA for human TBX18 gene. Somatic gene transfer was performed by adding 333 ng of TBX18 IVT mRNA with a transfection reagent, ViroMer Red, to a well in a 96-well plate seeded with the neonatal rat ventricular cardiomyocytes. TBX18 protein expression from the transfected IVT mRNA in the cardiomyocytes were quantitated by specific antibodies to TBX18 on immunoblots and normalized to an endogenous housekeeping protein, GAPDH. […] The TBX18 protein expression was also transient, in line with the expression kinetics of the delivered mRNA. This transient expression of TBX18 closely mimicked its native expression during embryonic development, and is ideal for the intended purpose as a reprogramming agent to convert ordinary heart muscle cells to specialized cardiac pacemaker cells. In FIG. 12, D denotes days after transfection, and each time point consists of two technical replicates.

[5] = test system: rat model of complete heart block; assay: Effect of TGF-beta small molecule inhibitor on ventricular pacing with TBX18 mRNA; type: in vivo; details: A83-01 released by osmotic pump
Description: On Day 0, an osmotic pump releasing A83-01 (a TGF-beta inhibitor, Sigma Aldrich) was implanted into the rats. On Day 1, TBX18 mRNA was injected into the rats and a telemetry device was also implanted. Two doses of TBX18 mRNA were given to the rats: (i) a low dose of 100 μg TBX18 mRNA with 68.4 μl RNA-free phosphate-buffered saline (PBS), or (ii) a high dose of 300 μg TBX18 mRNA with 205 μl RNA-free PBS. A continuous telemetry recording of each rat's electrocardiogram (ECG) was made for 21 days after implantation of the telemetry device. In addition, 3-lead surface ECGs were performed on anesthetized animals on Days 7, 14, and 21 along with an isoproterenol challenge. The heart was harvested from each animal on Day 21.
The inventors then determined the effects of including a TGF-beta small molecule inhibitor on ventricular pacing with TBX18 mRNA (FIG. 16).

[6] = test system: neonatal rat ventricular myocytes; assay: Spontaneous electrical activity on multi-electrode array; type: cell-based; details: control cardiomyocytes: infrequent and low rate activity
Description: Spontaneous electrical activity from neonatal rat ventricular myocytes were recorded on a non-invasive, multi-electrode array platform. […] The number of electrical activity (Count) was plotted as a function of spontaneous beating rates (in beats per minute, BPM) of the cardiomyocytes.

[7] = test system: neonatal rat ventricular cardiomyocytes; assay: Nuclear localization of TBX18 (FLAG) by immunostaining; type: cell-based; details: 24 hrs post-transfection
Source text: TBX18 is a transcription factor, and thus should be targeted to the nuclei upon proper translation from mRNA. Freshly-isolated neonatal rat ventricular cardiomyocytes were transfected with IVT mRNA for human TBX18 gene. TBX18 mRNA was designed with a tag peptide (DYKDDDDK (SEQ ID NO:9, also known as a “FLAG” epitope) fused to the C-terminal end of TBX18 for subcellular identification of TBX18 with an antibody against FLAG. Sarcomeric alpha-actinin (α-SA) and DAPI label cardiomyocytes and all nuclei, respectively. Arrows (co-localization of FLAG and DAPI) indicate nuclear localization of TBX18 protein. Three transfection conditions were tested in a 24-well plate, and immunostaining was performed at 24 hrs post-transfection.

[8] = test system: neonatal rat ventricular cardiomyocytes; assay: TBX18 IVT mRNA entry by qPCR normalized to GAPDH; type: cell-based; details: 333 ng mRNA with ViroMer Red, 96-well plate
Description: Freshly-isolated neonatal rat ventricular cardiomyocytes were transfected with IVT mRNA for human TBX18 gene. Somatic gene transfer was performed by adding 333 ng of TBX18 IVT mRNA with a transfection reagent, ViroMer Red, to a well in a 96-well plate seeded with the neonatal rat ventricular cardiomyocytes. TBX18 IVT mRNA that successfully entered the cardiomyocytes were quantitated by quantitative real-time PCR (qPCR), and the TBX18 mRNA level was normalized to an endogenous housekeeping gene, GAPDH, over time.

TBX18 mRNA: IVT mRNA for human TBX18 gene, with FLAG tag peptide fused to the C-terminal end of TBX18
biological cardiac pacing ([1]; focal intramyocardial injection into ventricular apex): created in vivo biological cardiac pacing
conduction vector (cardiac axis mapping) ([1]; one week after injection, baseline 77 degrees): 49 degrees
heart rate with isoproterenol ([1]; one week after injection, isoproterenol challenge): 229 bpm
average heart rate ([1]; one week after injection, under anesthesia, baseline 100 bpm): 120 bpm
average heart rate ([1]; three weeks after injection): 137 bpm
conduction vector of normal QRS complexes ([1]; three weeks after injection, anterograde): 48 degrees
conduction vector of transient QRS complexes with isoproterenol ([1]; three weeks after injection, isoproterenol, retrograde): −110 degrees
conduction vector of PVCs ([1]; three weeks after injection, retrograde): −116 degrees
ventricular pacing by continuous recording of heart rate and heart rate histograms ([2]; histograms on Days 21 after injection): created ventricular pacing
heart rate during isoproterenol treatment ([2]; one week after delivery, baseline 120 bpm): 265 bpm
heart rate during isoproterenol treatment ([2]; three weeks after delivery): 260 bpm
heart rate during isoproterenol treatment ([2]; two weeks after delivery): 206 bpm
R-R interval as the pig becomes awake in the morning ([3]; diurnal response): shorter R-R interval (faster heart rate)
time after delivery within which ventricular pacing was created ([3]; pig, in vivo): 7 to 10 days
time post-transfection to TBX18 protein expression [4]: less than 6 hours
effect on ventricular pacing / block [5]: created a complete ventricular block
spontaneous pacemaker activity [6]: highly active, high rate pacemaker activity
cardiomyocytes positive for nuclear TBX18 (FLAG positive) ([7]; 0.5 μg of IVT mRNA+0.2 μl of ViroMer Red): 4%
cardiomyocytes positive for nuclear TBX18 (FLAG positive) ([7]; 1 μg of IVT mRNA+0.1 μl of ViroMer Red): 2%
cardiomyocytes positive for nuclear TBX18 (FLAG positive) ([7]; 1 μg of IVT mRNA+0.2 μl of ViroMer Red): 21%
entry of IVT mRNA into cardiomyocytes [8]: efficient entry
